Consider two compounds from paper PMC9036794, “Improving astaxanthin production in Escherichia coli by co-utilizing CrtZ enzymes with different substrate preference” (Microbial Cell Factories, 2022).

Common to all, as to format: cell-based
Assay [1] has as its target T1, PCcrtZ (Paracoccus sp. PC1, UniProt Q44262).
T1 construct: gene crtZ; synthesized gene, integrated into E. coli chromosome (manA site) under P-trc; whole-cell read-out
T1 sequence (Q44262 1-162): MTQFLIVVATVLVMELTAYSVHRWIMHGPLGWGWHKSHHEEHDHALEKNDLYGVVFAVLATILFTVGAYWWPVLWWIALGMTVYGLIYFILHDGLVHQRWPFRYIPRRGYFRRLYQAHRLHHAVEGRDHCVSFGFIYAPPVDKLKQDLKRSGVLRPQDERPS
In words: astaxanthin formed in canthaxanthin-producing E. coli, HPLC. Conditions: engineered E. coli Can004 background (Ast016, Ast017), shake flask, 30 °C; conversion to astaxanthin; whole-cell titre only.

In assay [2] the target is T2, PAcrtZ (Pantoea agglomerans, UniProt E9LFG1).
T2 construct: gene crtZ; gene integrated into E. coli chromosome (manA site) under P-trc; whole-cell read-out
The assay is described as above. Conditions: engineered E. coli Can004 background (Ast014, Ast015), shake flask, 30 °C; conversion to astaxanthin; whole-cell titre only.

Assay [3] concerns the target T2, PAcrtZ. The assay is described as follows: zeaxanthin formed in beta-carotene-producing E. coli, HPLC. Conditions: engineered E. coli CAR032 background (Zea003, Zea004), shake flask, 30 °C; conversion to zeaxanthin; whole-cell titre only.
Assay [4] concerns the target T1, PCcrtZ. The assay is described as above. Conditions: engineered E. coli CAR032 background (Zea001, Zea002), shake flask, 30 °C; conversion to zeaxanthin, weak; whole-cell titre only. The source says: zeaxanthin formed in beta-carotene-producing E. coli, HPLC on PCcrtZ | PCcrtZ from Paracoccus sp.
For assay [5], the target named is T3, crtW* (Brevundimonas sp. NBRC 101024, UniProt Q4W8B8).
T3 construct: integrated into E. coli chromosome (mgsA, lacZ sites) under P-trc; whole-cell read-out
T3 sequence (Q4W8B8 1-244): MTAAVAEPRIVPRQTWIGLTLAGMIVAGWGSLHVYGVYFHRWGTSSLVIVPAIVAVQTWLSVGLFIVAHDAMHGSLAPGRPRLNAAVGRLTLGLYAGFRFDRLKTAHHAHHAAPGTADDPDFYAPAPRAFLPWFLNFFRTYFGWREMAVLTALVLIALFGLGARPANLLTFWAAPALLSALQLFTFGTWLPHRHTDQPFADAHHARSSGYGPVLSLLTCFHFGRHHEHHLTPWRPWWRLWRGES
The assay is described as follows: canthaxanthin formed in beta-carotene-producing E. coli, HPLC. As to conditions: engineered E. coli (Can003, Can004), shake flask, 30 °C; conversion to canthaxanthin; whole-cell titre only.

T2 sequence (E9LFG1 entry or part of it): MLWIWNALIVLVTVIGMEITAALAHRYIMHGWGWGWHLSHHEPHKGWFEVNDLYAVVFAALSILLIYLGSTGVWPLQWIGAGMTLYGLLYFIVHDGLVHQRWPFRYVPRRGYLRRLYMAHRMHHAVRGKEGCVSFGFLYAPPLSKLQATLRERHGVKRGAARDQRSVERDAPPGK

As for `CC1=C(/C=C/C(C)=C/C=C/C(C)=C/C=C/C=C(C)/C=C/C=C(C)/C=C/C2=C(C)C(=O)CCC2(C)C)C(C)(C)CCC1=O` [canthaxanthin], the “astaxanthin formed in canthaxanthin-producing E. coli, HPLC” value in assay [1] is on record as “Ast016 (Can004 with one copy of PCcrtZ) produced similar amounts of astaxanthin”; in assay [2] it was “Ast014 (Can004 with one copy of PAcrtZ)”.

Consider `CC1=C(/C=C/C(C)=C/C=C/C(C)=C/C=C/C=C(C)/C=C/C=C(C)/C=C/C2=C(C)CCCC2(C)C)C(C)(C)CCC1` [β-carotene], for which the “zeaxanthin formed in beta-carotene-producing E. coli, HPLC” value in assay [3] is on record as “PAcrtZ from P. agglomerans therefore exhibited a substrate preference for β-carotene”; in assay [4], “PCcrtZ from Paracoccus sp. PC1 showed weak activity in the conversion of β-carotene into zeaxanthin”. Also, the “canthaxanthin formed in beta-carotene-producing E. coli, HPLC” value in assay [5] is listed as “CrtW converts β-carotene into keto-carotenoids”.
